The results in this text go back to article PMC7463460, “Structure and Antiparasitic Activity Relationship of Alkylphosphocholine Analogues against Leishmania donovani” (Microorganisms, 2020).

Where “and” joins values, the source holds several entries; their conditions need not be identical. Identical values can stand only once. Like-named read-outs stand apart in the source and are kept apart here.

What is called IC50 is the point on the concentration scale where inhibition reaches its midpoint.

Data set [1] has as its system L. donovani 275/18 (Sb-resistant) promastigotes. The data set can be described thus: Promastigote luciferase assay, Sb-resistant strain 275/18. Conditions: for IC50: Leishmania donovani, read-out: Mean IC50 Promastigotes; for Promast: Amast Ratio: strain 275/18, Sb-resistant; for Cross-Resistance Index (CRI50) Promast: strain 275/18, Sb-resistant vs Sb-S. The data set is classed as cell-based, Leishmania donovani. The source says: (§1) L. donovani cloned strains with different Sb susceptibility backgrounds were derived from isolates obtained from VL patients at the B.P. Koirala Institute of Health Sciences, Dharan, Nepal: MHOM/NP/02/BPK282/0cl4 (Sb sensitive, Sb-S). MHOM/NP/02/BPK087/0cl11 (Sb intermediate, Sb-I) and MHOM/NP/02/BPK275/0cl18 (Sb resistance, Sb-R [13]). In addition, Milt-resistant parasites raised against these three Sb sensitivity backgrounds and the Sb-sensitive strain (MHOM/ET/67:LV82) was also used in studies. Luciferase expressing promastigotes for the LV82 and Nepalese strains were prepared using previously published methods and the integrative construct (a gift from Dr D.F. Smith), designated pGL1313, contained pSSU-int fragments to facilitate integration into the ribosomal RNA locus of Leishmania.
The anti-leishmanial activity of APC against L. donovani luciferase-expressing promastigotes was determined by adding of the appropriate 100 µL parasite line (10^6 cells/mL) to the wells of a 96-well plate and adding 100 µL medium alone (controls) or 100 µL of APC compound (0.01 µg/mL–6.25 µg/mL, n = 3/treatment). […].
(§2) Luciferin solution (1 µg/mL in 20 µL medium without FCS) was added to the appropriate wells of the 96-well plate at the end of the experiment and the amount of light emitted/well was measured using a luminometer (Biotek Synergy HT, relative light units) using a wavelength/bandwidth of 440/40 nm, or IVIS® imaging (Spectrum Living Image system®, total flux, photons/sec).
(§3) The effect of drug treatment on parasite survival was determined by calculating the mean suppression in the light emitted from the drug-treated experimental sample compared to the mean control value and used to calculate the IC50 using Grafit® software (version 5.0, Erithacus Software, East Grinstead, West Sussex, UK). The effect of drug alone on the viability of uninfected macrophages was determined using the same experimental protocol above, but cell viability was determined using an alamar blue colorimetric assay. At the end of the incubation period, cells’ 10 µL resazurin solution (0.02% w/v) was added to control and drug treated cells and the absorbance of samples was read at 575 and 595 nm. The effect of drug treatment on cell survival, which correlates with the magnitude of dye reduction, was expressed as percentage viability (or alamar blue reduction) and determined using the formula provided in the manufacturer’s protocol % alamar blue reduction=(εoxλ)(Aλ1)−(εoxλ1)(Aλ2)/(εredλ1)(A^′λ2)−(εredλ2)(A^′λ1)x100
Cross resistance (CRI50) indexes were determined as Cross selectivity indices (CRI)=mean IC50 value for the relevant drug−resistant strain i.e., Sb−I or Sb−R / mean IC50 value drug−sensitive strain Sb−S

A short description of data set [2]: Cytotoxicity against uninfected macrophages (alamar blue). The data set is classed as cell-based, BALB/c mice. The conditions noted are these: BALB/c, mouse, read-out: Macrophage mean IC50 (CC50) (converted). The protocol:
as §3
In the formula, ελ1 and ελ2 are constants representing the molar extinction coefficient of alamar blue at 575 and 595 nm, respectively, in the oxidized (εox) and reduced (εred) forms. Aλ1, Aλ2 and A’λ1, A’λ2 represent absorbance of test and negative control wells at 575 and 595 nm, respectively. The values of % alamar blue reduction (or % viability) were corrected for background values of negative controls containing medium without cells. Percent viability values were used to calculate the IC50 using Grafit® software (version 5.0).
In general terms: Resazurin is reduced to fluorescent resorufin, in cell work by metabolically active cells.

Data set [3] concerns L. donovani 282/4 (Sb-sensitive) intracellular amastigotes. The data set can be described thus: Intracellular amastigote assay, Sb-sensitive strain 282/4. The conditions noted are these: strain 282/4, Sb-sensitive; for IC50: Leishmania donovani; for Selectivity Index (SI50): macrophage CC50 / amastigote IC50. Type of data set: cell-based, Leishmania donovani.
From the text: as §1
In the macrophage studies, the method described in previous studies was used as follows. […] It is possible that intracellular macrophage parasites could have been at different developmental stages at 24 h post-infection. […] Therefore, we assumed that the effect of compounds on the amastigote stage rather than the promastigotes stage was determined in in vitro macrophage studies.
The plate was incubated for a further 24 h, the medium removed, and each well washed with PBS to eliminate non-internalized parasites, which were monitored microscopically. […] Wells with macrophage and with no drug or promastigotes added were used in control experiments.
as §2
as §3, with “At the end of the incubation period, cells’ 10 µL resazurin solution (0.02% w/v) was added to control and drug treated cells and the absorbance of samples was read at 575 and 595 nm.” left out

[4] abbreviates: uninfected bone-marrow-derived macrophages.

For `CCCCCCCCCCCCOP(=O)([O-])OCC[N+](C)(C)C` [APC12, dodecylphosphocholine], in data set [1], the 50% inhibitory concentration (IC50) was 0.49 µg/mL and 1.39 µM; the “Promast: Amast Ratio” value turned out to be 2.10; the “Cross-Resistance Index (CRI50) Promast” value was found to be 0.89. Also, the IC50 at 3 days in data set [2] (setting [4]) was 35.4 µg/mL and 101 µM. In data set [3], the IC50 was 0.26 µg/mL and 740 nM; the “Selectivity Index (SI50)” value is given as 136.08.
For the compound `CCCCCCCCCCCCCCOP(=O)([O-])OCC[N+](C)(C)C` [APC14, tetradecylphosphocholine], in data set [1], the concentration for half-maximal inhibition (IC50) is 0.37 µg/mL and 970 nM; the “Promast: Amast Ratio” value came to 1.31; the “Cross-Resistance Index (CRI50) Promast” value came to 0.84. Also, the IC50 at 3 days in data set [2] (setting [4]) was 40.9 µg/mL and 108 µM. Further, in data set [3], the IC50 was 0.12 µg/mL and 320 nM; the “Selectivity Index (SI50)” value worked out at 340.75.
Consider `CCCCCCCCCCCCCCCCOP(=O)([O-])OCC[N+](C)(C)C` [APC16, hexadecylphosphocholine, reference compound], for which, in data set [1], the half-inhibitory concentration (IC50) was 1.26 µg/mL and 3.09 µM; the “Promast: Amast Ratio” value is recorded as 2.49. The IC50 at 3 days in data set [2] is 5.08 µg/mL and 12.5 µM. In addition, the IC50 in data set [3] was 0.31 µg/mL and 760 nM.
